Experimental data reported in article PMC2074523, “Bioavailability and pharmacokinetics of oral topotecan: a new topoisomerase I inhibitor” (British Journal of Cancer, 1996).
Where “and” joins values, the source holds several entries; their conditions need not be identical. Equal entries are not always repeated. Structures can show the parent of a compound that is named as a salt. One block for each compound: values may come before it.

Key:
clinical = details: for Vd: 1.5 mg m-2, volume of distribution at steady state (Vd,ss)
Source text: British Journal of Cancer (1996) 73, 1268-1271 ff* (C) 1996 Stockton Press All rights reserved 0007-0920/96 $12.00 Bioavailability and pharmacokinetics of oral topotecan: a new topoisomerase I inhibitor JHM Schellens', GJ Creemers', JH Beijnen2, H Rosing2, M de Boer-Dennert', M McDonald3, B Davies4 and J Verweij' 'Department of Medical Oncology, Rotterdam Cancer Institute, 3075 EA Rotterdam, The Netherlands; 2Slotervaart Hospital, Amsterdam, The Netherlands; 3SmithKline & Beecham, UK; 4SmithKline & Beecham, USA. […] The oral dose of 1.5 mg m 2 was administered as a drinking solution of 200 ml on day 1. The i.v. dose of 1.5 mg m-2 was administered as a 30 min continuous infusion on day 2. The bioavailability was calculated as the ratio of the oral to i.v. area under the curve (AUC) calculated up to the last measured time point. […] Keywords: topotecan; bioavailability; topoisomerase I inhibitor Topotecan (SKF 104864) [(S)-9-dimethylaminomethyl-10- hydroxycamptothecin hydrochloride] is a semisynthetic water-soluble analogue of camptothecin (Hsiang and Liu, 1988). Like camptothecin, topotecan is a specific inhibitor of topoisomerase I (Hsiang and Liu, 1988). Topotecan incorporates a stable basic side-chain at the 9-position of the A-ring, which provides water solubility at acid pH. Topotecan is converted to its lactone ring-opened hydrolysis product (hydroxy acid), which reversible pathway is strongly pH dependent. The biological activity of the hydroxy acid has not been fully elucidated (Kingsbury et al., 1991). […] In the present study the bioavailability and pharmacoki- netics of oral topotecan are explored in patients with solid tumours with the aim of providing a basis for further development of clinical studies using chronic oral topotecan. […] The performance status had to be < 2 on the WHO scale and life expectancy >3 months. The minimum age was 18 and maximum age 75 years. The haemoglobulin had to be >6.0 mmol 1 -1 (9 g dl-'), WBC? 3500 ul -', granulocytes , 1000 l-d and platelets >100 000 jil-'. The serum creatinine had to be < 140 imol 1-1 (1.6 mg dl-'), the serum bilirubin <26 µmol 1` (1.5 mg dl-') and alkaline phospha- tase and transaminases <2 times the upper normal limit if liver metastases were absent or -5 times the upper normal limit if liver metastases were present. Topotecan was administered orally and intravenously at a dose of 1.5 mg m-2. Topotecan as supplied for intravenous infusion was diluted for oral dosage. […] The dose was placed in a beaker containing 100 ml of 5% dextrose injection solution. On day 1, patients were asked to drink the entire contents. Subsequently, an additional 100 ml of 5% dextrose injection solution was added to the beaker and taken by the patient. On day 2 topotecan was administered at the same dose as a continuous 30 min intravenous infusion.

[1] = Acute tolerability of oral drinking solution and i.v. infusion of topotecan in patients; type: in vivo, human
Source text: British Journal of Cancer (1996) 73, 1268-1271 ff* (C) 1996 Stockton Press All rights reserved 0007-0920/96 $12.00 Bioavailability and pharmacokinetics of oral topotecan: a new topoisomerase I inhibitor JHM Schellens', GJ Creemers', JH Beijnen2, H Rosing2, M de Boer-Dennert', M McDonald3, B Davies4 and J Verweij' 'Department of Medical Oncology, Rotterdam Cancer Institute, 3075 EA Rotterdam, The Netherlands; 2Slotervaart Hospital, Amsterdam, The Netherlands; 3SmithKline & Beecham, UK; 4SmithKline & Beecham, USA. […] The oral dose of 1.5 mg m 2 was administered as a drinking solution of 200 ml on day 1. The i.v. dose of 1.5 mg m-2 was administered as a 30 min continuous infusion on day 2. The bioavailability was calculated as the ratio of the oral to i.v. area under the curve (AUC) calculated up to the last measured time point. […] Keywords: topotecan; bioavailability; topoisomerase I inhibitor Topotecan (SKF 104864) [(S)-9-dimethylaminomethyl-10- hydroxycamptothecin hydrochloride] is a semisynthetic water-soluble analogue of camptothecin (Hsiang and Liu, 1988). Like camptothecin, topotecan is a specific inhibitor of topoisomerase I (Hsiang and Liu, 1988). Topotecan incorporates a stable basic side-chain at the 9-position of the A-ring, which provides water solubility at acid pH. […]

[2] = set-up: method as in unpublished data; details: mean (s.d. 16.3), ref unpublished data; cited from earlier work
[3] = Table I, patients 1-12 in order, oral 1.5 mg m-2

plasma concentration-time curves of the hydroxy acid compared with topotecan (clinical; human, in vivo): higher than those of topotecan
ratio of the AUC(t) of the hydroxy acid after oral and i.v. administration (clinical; human, in vivo): 0.38 ± 0.12
Cmax of the hydroxy acid (clinical; human, in vivo, iv): 18.97 ± 2.44 ng/mL
terminal t1/2 of the hydroxy acid (clinical; human, in vivo, iv): 3.22 ± 0.73 h
AUC(t) of hydroxy acid, i.v. (clinical; human, in vivo, iv, 1.5 mg): 73.25 ng/h/mL
Cmax of the hydroxy acid (clinical; human, in vivo, po): 7.50 ± 2.57 ng/mL
Cmax of the hydroxy acid, range (clinical; human, in vivo, po): 4.66 + 12.32 ng ml-1
plasma concentration on day 2, before administration of the second dose (clinical; human, in vivo, po): undetectable
terminal t1/2 of the hydroxy acid (clinical; human, in vivo, po): 2.82 ± 0.85 h
AUC(t) of hydroxy acid, oral (clinical; human, in vivo, po, 1.5 mg): 31.41 ng/h/mL
SMILES: CC[C@@](O)(C(=O)O)c1cc2n(c(=O)c1CO)Cc1cc3c(CN(C)C)c(O)ccc3nc1-2 [hydroxy acid]

plasma concentration on day 2, before administration of the second dose (clinical; day after oral dose 1.5 mg m-2, LLQ 0.1 ng ml-1): undetectable
Cmax (clinical; human, in vivo, iv, 1.5 mg, i.v. (individual patients)): 41.8 ng/mL
clearance (clinical; human, plasma, iv, 1.5 mg): 535 to 1070 mL/min
clearance (clinical; human, plasma, iv, 1.5 mg m-2): 824 ± 154 mL/min
half-life (clinical; human, plasma, iv, 1.5 mg m-2, half-life for the initial decline of the plasma concentration-time curve (t1/2 alpha), mean ± s.d., ten patients fitted with a biexponential model): 0.186 h
half-life (clinical; human, plasma, iv, 1.5 mg m-2, t1/2 beta, after i.v., the patient with the highest bioavailability of 45%): 1.8 h
half-life (clinical; human, plasma, iv, 1.5 mg m-2, t1/2 beta, mean ± s.d., n=12): 2.4 h
half-life (clinical; human, plasma, iv, 1.5 mg m-2, t1/2 beta, range, n=12): 1.72 to 2.93 h
Vd (clinical; human, plasma, iv, mean ± s.d., n=12): 128 L
Vd (clinical; human, plasma, iv, range, n=12): 86 to 231 L
Cmax (clinical; human, plasma, iv, 1.5 mg, mean of 12 patients, i.v. 1.5 mg m-2): 37.8 ng/mL
Tmax (clinical; human, plasma, po, 1.5 mg m-2, Tmax, range of the other 11 patients, without the patient with Tmax 2.5 h): 0.33 to 1.5 h
half-life (clinical; human, plasma, po, 1.5 mg m-2, t1/2 beta, after oral administration, the patient with the highest bioavailability of 45%): 3.2 h
half-life (clinical; human, plasma, po, 1.5 mg m-2, t1/2 beta, mean, n=10): 2.43 h
half-life (clinical; human, plasma, po, 1.5 mg m-2, t1/2 beta, range, n=10): 1.02 to 3.2 h
Cmax (clinical; human, plasma, po, 1.5 mg, mean of 12 patients, oral 1.5 mg m-2): 5.88 ng/mL
Cmax (clinical; human, plasma, po, 1.5 mg, oral (individual patients), Table I, patients 1-12 in order, oral 1.5 mg m-2): 5.95 ng/mL
Tmax (clinical; human, plasma, po, 1.5 mg, time to maximum plasma concentration (Tmax), median, oral 1.5 mg m-2, 12 patients): 0.78 h
Tmax (clinical; human, plasma, po, 1.5 mg, time to maximum plasma concentration (Tmax), range, oral 1.5 mg m-2, 12 patients): 0.33 to 2.5 h
AUC(t), range (clinical; i.v. 1.5 mg m-2): 32.50 to 73.68 ng/h/mL
AUCoo, range (clinical; i.v. 1.5 mg m-2): 43.70 to 81.08 ng/h/mL
bioavailability (ratio of oral to i.v. AUC(t)) (clinical; mean (s.d. 7.7), oral drinking solution 1.5 mg m-2 day 1 vs 30 min i.v. infusion 1.5 mg m-2 day 2, 12 patients): 30%
bioavailability if curves extrapolated to infinity (AUCoo) (clinical; mean (s.d. 11.5), oral vs i.v. 1.5 mg m-2): 32%
AUC(t) (clinical; mean ± s.d., i.v. 1.5 mg m-2): 49.87 ± 10.87 ng/h/mL
total plasma clearance (Cl) (clinical; mean ± s.d., i.v. 1.5 mg m-2 30 min infusion, n=12): 824+ 154 ml min-1
AUCoo (clinical; mean ± s.d., i.v. 1.5 mg m-2, extrapolated to infinity): 61.02 ± 10.57 ng/h/mL
AUC(t) (clinical; mean ± s.d., oral 1.5 mg m-2, up to latest measured time point): 15.18 ± 5.51 ng/h/mL
AUC(t), range (clinical; oral 1.5 mg m-2): 9.38 to 25.37 ng/h/mL
bioavailability (ratio of oral to i.v. AUC(t)), range (clinical; range over 12 patients, oral vs i.v. 1.5 mg m-2): 21-45%
SMILES: CC[C@@]1(O)C(=O)OCc2c1cc1n(c2=O)Cc2cc3c(CN(C)C)c(O)ccc3nc2-1 [topotecan, (S)-9-dimethylaminomethyl-10-hydroxycamptothecin hydrochloride]
acute side-effects ([1]; i.v. and oral 1.5 mg m-2, 12 patients): Neither i.v. nor oral administration was associated with any significant acute side-effect
tolerability of the oral drinking solution ([1]; oral 1.5 mg m-2 in 200 ml, 12 patients): well tolerated
Cmax, i.v. (individual patients) (clinical; Table I, patients 1-12 in order, i.v. 1.5 mg m-2): 41.08 ng/mL and 35.92 ng/mL and 43.86 ng/mL and 33.40 ng/mL and 47.18 ng/mL and 40.35 ng/mL and 41.41 ng/mL and 41.21 ng/mL and 42.11 ng/mL and 25.35 ng/mL and 19.57 ng/mL
Cmax, oral (individual patients) (clinical; [3]): 5.93 ng/mL and 5.16 ng/mL and 5.45 ng/mL and 5.71 ng/mL and 7.14 ng/mL and 4.71 ng/mL and 5.08 ng/mL and 6.48 ng/mL and 6.67 ng/mL and 5.38 ng/mL and 6.93 ng/mL
Tmax, oral (individual patients) (clinical; [3]): 0.5 h (3×) and 1.03 h (2×) and 0.33 h and 1.13 h and 0.52 h and 0.55 h and 2.5 h and 1.5 h and 1.0 h
F (individual patients) (clinical; Table I, patients 1-12 in order, ratio AUC(t) oral/i.v.): 21% and 30% (2×) and 25% and 38% and 23% (2×) and 22% and 45% and 34% and 35% and 36%
bioavailability after oral administration in dogs [2]: 35.7%
